# Results from PubChem BioAssay AID434987 (Southern Research Specialized Biocontainment Screening …, 2010).
# Active and inactive are the calls of the source. How the calls were made is not given here.
# System: M. tuberculosis H37Rv growth inhibition with meropenem
# Experiment: dose response, H37Rv, with and without meropenem (AID 434987);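 further: growth over 7 days at 37 °C before Alamar Blue read on day 9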
# [1] = M. tuberculosis H37Rv growth inhibition, measured here: IC50 without meropenem
# [2] = M. tuberculosis H37Rv growth inhibition, measured here: IC90 without meropenem
# [3] = measured here: IC90 with meropenem
Compound,IC50,IC50 [1] [µM],IC90 [2] [µM],IC90 [3] [µM]
COC(=O)c1c(C)n(-c2ccc(C)cc2)c2ccc(O)cc12,> 100 µM (inactive),> 100,> 100,> 100
CCc1ccc(NC(=S)Nc2ccc(S(=O)(=O)Nc3ncccn3)cc2)cc1,61.4 µM (inactive),> 100,> 100,> 100
O=C(N/N=C/c1ccc(OC(=O)c2ccc3c(c2)OCO3)cc1)c1cncc(Br)c1,5.48 µM,45.7,> 100,48.3
CCN(CC)c1ccc(C(=O)n2cnc3ccccc32)cc1,70.3 µM (inactive),91.6,> 100,> 100
Cc1cc(F)ccc1NCC(=O)Nc1ccc(Br)cc1C,94.2 µM (inactive),98.2,> 100,> 100
CCn1nc(C)c([N+](=O)[O-])c1C(=O)NNC(=O)c1ccccc1Cl,> 100 µM (inactive),> 100,> 100,> 100
COc1ccc(/C=C/C(=O)N(C(C)C)C(C)C)cc1Br,5.89 µM,93,> 100,96.4
COc1ccccc1N(C)S(=O)(=O)c1ccc(C(=O)OCC(=O)N2CCCCCC2)cc1,> 50 µM (inactive),> 100,> 100,> 50
Cc1cc(C)c(OCC(=O)Nc2nc3ccccc3[nH]2)c(C)c1,1.22 µM,22.1,> 100,65.2
COc1ccc(OC)c(-c2cc(C(=O)Nc3c(C)n(C)n(-c4ccccc4)c3=O)no2)c1,17.1 µM,54,> 100,49.5
COc1ccc2sc(-c3ccc(N(C)C)cc3)c(C#CC(C)(C)O)c2c1,19.8 µM,> 100,> 100,> 100
COc1ccc2c(C)nc(Nc3nc(-c4ccccc4)cc(=O)[nH]3)nc2c1,> 100 µM (inactive),> 100,> 100,> 100
CCn1c(SCc2nc(-c3cccs3)no2)nnc1-c1c[nH]c2ccccc12,> 100 µM (inactive),> 100,> 100,> 100
COc1cc(C(=O)N/N=C/c2ccc(OC(=O)c3cccc(C)c3)cc2)ccc1O,4.54 µM,77.7,> 100,53.4
COCCNC(C(=O)Nc1ccc(C)cc1[N+](=O)[O-])c1ccccc1 (configuration not stated),17.2 µM,49.1,> 100,> 100
COc1cc(C(=O)Nc2cccc(-c3cn4cccnc4n3)c2)cc(OC)c1OC,10.9 µM,35,> 100,30.2
CCC(=O)Nc1cc(OC)c(NC(=O)c2ccccc2)cc1OC,22.7 µM,93.4,> 100,> 100
O=C(Nc1ccccc1)Nc1csc2ccccc12,< 0.2 µM,23.9,> 100,20.9
CCCCCNCc1cccc(Br)c1,48.5 µM (inactive),> 100,> 100,> 100
c1ccc(-c2ccc(C3=Nn4c(Cn5nnc6ccccc65)nnc4SC3)cc2)cc1,53.5 µM (inactive),84.4,> 100,> 100
Cc1[nH]n(-c2ccccc2)c(=O)c1/C=N/NC(=O)c1cccc([N+](=O)[O-])c1,5.43 µM,34.2,55.1,70.7
CCOc1ccc2nc(N3CCC(C(=O)NC4CCCCC4)CC3)sc2c1,> 100 µM (inactive),> 100,> 100,> 100

Compound,IC50,IC50 [1] [µM],IC90 [2] [µM],IC90 [3] [µM]
Cc1cc(C(=O)CN2C(=O)NC(c3ccccc3)(c3ccccc3)C2=O)c(C)n1Cc1ccccc1,> 100 µM (inactive),> 100,> 100,> 100
Cc1sc2nc(C(C)(C)C)oc(=O)c2c1C,> 100 µM (inactive),> 100,> 100,> 100
Nc1ccc(N=Nc2ccccc2O)c(N)c1,6.58 µM,33.8,> 100,34
CCCCN=C1CC(C)(C)CC(=O)/C1=C(/O)CCC,18.9 µM (inactive),42.1,> 100,28.7
O=C(OCC(=O)c1c[nH]c2ccccc12)c1cccc([N+](=O)[O-])c1,> 100 µM (inactive),> 100,> 100,> 100
COc1ccc(NC(=O)CSc2nc(N)c(C(=O)Nc3ccc(N(C)C)cc3)s2)cc1,22.8 µM,> 100,> 100,> 100
COCCNC(=S)N/N=C(\C)c1cccc(OC)c1,17.8 µM,47.1,> 100,> 100
c1ccc(-c2cc3ccccc3[nH]2)cc1,> 100 µM (inactive),> 100,> 100,> 100
CC#CC[N+](C)(C)CCCCCCCCCCCC,49 µM (inactive),72.8,> 100,> 100
CCOc1ccc(/C=N/NC(=O)c2ccccc2O)cc1CN1CC2CC(C1)c1cccc(=O)n1C2 (configuration not stated),79.8 µM (inactive),94.9,> 100,> 100
CCN(CC)c1ccc(NC(=O)c2cc(Cl)ccc2OC)cc1,24.2 µM,> 100,> 100,> 100
Cc1nn(C)c(C(=O)NC(=S)Nc2ccccc2Br)c1Cl,> 100 µM (inactive),> 100,> 100,> 100
O=S(=O)(Nc1cccc(-c2ccc(N3CCCCCC3)nn2)c1)c1ccccc1Cl,16 µM,> 100,> 100,> 25
O=C(CSc1nnc(COc2ccccc2)o1)N1CCN(c2ccccc2)CC1,> 100 µM (inactive),> 100,> 100,> 100
COC(=O)c1ccc(/C=N/Nc2nc(-c3ccc(C)cc3)cs2)cc1,10.9 µM,> 100,> 100,> 100
CC1(C)CC(=O)c2cc(C(=O)NCc3ccco3)c(=O)n(-c3ccccc3)c2C1,> 100 µM (inactive),> 100,> 100,> 100
CCC1(CC)Cc2ccccc2C(N)=C1C#N,> 100 µM (inactive),> 100,> 100,> 100
CC(C)(C)OC(=O)N1CCC(NC(=O)c2[nH]cnc2C(=O)Nc2ccccc2)CC1,> 100 µM (inactive),> 100,> 100,> 100
Cc1cccc(-n2nc([N+](=O)[O-])c(=NC3CCN(Cc4ccccc4)CC3)n2O)c1,25.9 µM (inactive),45.8,49,30.5
O=C1C2CCN(CC2)C1Cc1ccc(OCCOc2ccccc2)cc1 (configuration not stated),> 100 µM (inactive),> 100,> 100,> 100
Cn1c(=O)c2ccccc2n2c(CCl)nnc12,1.22 µM,3.19,> 100,4.65
